Data from patent publication US20080070883A1, “Use of LXR modulators for the prevention and treatment of skin aging” (Wyeth, priority 2006, published 2008).

Key:
[1] = tested on: glutathione peroxidase (GPX3); assay: TaqMan quantitative PCR, GPX3 gene expression in NHEKs; assay type: cell-based, human; conditions: 1 μM, FIG. 11
Description: (§1) Add QIAzol® Lysis Reagent (QIAGEN Cat Number 79306) to the cells. Scrape the cells and place into a Falcon Polypropylene tube. Let stand at room temperature for 5 minutes. Add 1 ml of cells to microfuge tubes. Add 200 μl of chloroform, vortex, let stand for 5 minutes. Centrifuge at 4° C. for 15 minutes at 14,000 RPM. Add an equal volume of 70% ETOH (diluted with DEPC water). Add 600 μl to the RNeasy® column from the RNeasy® Mini Kit (QIAGEN Cat. Number 74106) centrifuge at 14,000 RPM at room temperature for 1 minute, discard flow-through. Add remainder of sample to the column, centrifuge, discard flow-through. Add 350 μl of RW1 buffer from the RNeasy® Mini Kit to the column, centrifuge at room temperature for 1 minute, discard flow-through. […] TaqMan technology was used for quantitative PCR for the evaluation of MMP, TNFα, TIMP, IL-8, ASAH1, SPTLC1, SMPD1, LASS2, TXNRD1, GPX3, GSR, CAT, ABCA1, ABCA2, ABCA12, ABCA13, ABCG1, decorin, and LXRα/β gene expression in keratinocytes and fibroblasts. […] Setup TaqMan with QuantiTect Multiplex PCR Kit (QIAGEN cat. Number 204543): 2× master mix: 25 μl; Single Tube Assay: 2.5 μl; Applied Biosystems Primers Probe set (part number 4308329)-18S forward primer: 0.25 μl, 18S reverse primer: 0.25 μl, 18S probe: 0.25 μl; water to 50 μl; 5 μl cDNA. […]

MMP1 = assay: TaqMan quantitative PCR, MMP1 gene expression in BJ human fibroblasts; assay type: cell-based; conditions: 5 ng/ml rhTNFα, 1 μM, FIG. 8A
Description: (§2) Add QIAzol® Lysis Reagent (QIAGEN Cat Number 79306) to the cells. Scrape the cells and place into a Falcon Polypropylene tube. Let stand at room temperature for 5 minutes. Add 1 ml of cells to microfuge tubes. Add 200 μl of chloroform, vortex, let stand for 5 minutes. Centrifuge at 4° C. for 15 minutes at 14,000 RPM. Add an equal volume of 70% ETOH (diluted with DEPC water). Add 600 μl to the RNeasy® column from the RNeasy® Mini Kit (QIAGEN Cat. Number 74106) centrifuge at 14,000 RPM at room temperature for 1 minute, discard flow-through. Add remainder of sample to the column, centrifuge, discard flow-through. Add 350 μl of RW1 buffer from the RNeasy® Mini Kit to the column, centrifuge at room temperature for 1 minute, discard flow-through. […]
(§3) TaqMan technology was used for quantitative PCR for the evaluation of MMP, TNFα, TIMP, IL-8, ASAH1, SPTLC1, SMPD1, LASS2, TXNRD1, GPX3, GSR, CAT, ABCA1, ABCA2, ABCA12, ABCA13, ABCG1, decorin, and LXRα/β gene expression in keratinocytes and fibroblasts. […]
(§4) Setup TaqMan with QuantiTect Multiplex PCR Kit (QIAGEN cat. Number 204543): 2× master mix: 25 μl; Single Tube Assay: 2.5 μl; Applied Biosystems Primers Probe set (part number 4308329)—18S forward primer: 0.25 μl, 18S reverse primer: 0.25 μl, 18S probe: 0.25 μl; water to 50 μl; 5 μl cDNA. […]

LXRα = assay: TaqMan quantitative PCR, LXRα gene expression in NHEKs; assay type: cell-based, human; conditions: 1 μM, FIG. 1A
TIMP1 [2] = assay: TaqMan quantitative PCR, TIMP1 gene expression in NHEKs; assay type: cell-based, human; conditions: 1 μM, FIG. 4
Description: as §1

[3] = tested on: thioredoxin reductase (TXNRD1); assay: TaqMan quantitative PCR, TXNRD1 gene expression in NHEKs; assay type: cell-based, human; conditions: 1 μM, FIG. 11
Description: as §1

MMP3 [4] = assay: TaqMan quantitative PCR, MMP3 gene expression in BJ human fibroblasts; assay type: cell-based; conditions: 5 ng/ml rhTNFα, 1 μM, FIG. 8B
Description: as §2, §3, §4

[5] = tested on: glutathione reductase (GSR); assay: TaqMan quantitative PCR, GSR gene expression in NHEKs; assay type: cell-based, human; conditions: 1 μM, FIG. 11
Description: as §1

[6] = tested on: serine palmitoyl transferase (SPTLC1); assay: TaqMan quantitative PCR, SPTLC1 gene expression in NHEKs; assay type: cell-based, human; conditions: 1 μM, FIG. 10A
Description: as §1

ABCA12 = assay: TaqMan quantitative PCR, ABCA12 gene expression in NHEKs; assay type: cell-based, human; conditions: 1 μM
Description: as §1

IL-8 = assay: TaqMan quantitative PCR, IL-8 gene expression in NHEKs; assay type: cell-based, human; conditions: UV-exposed (8 J/m^2), 1 μM, FIG. 5
Description: as §1

[7] = tested on: ceramide synthase (LASS2); assay: TaqMan quantitative PCR, LASS2 gene expression in NHEKs; assay type: cell-based, human; conditions: 1 μM, FIG. 10A
Description: as §1

ABCA13 = assay: TaqMan quantitative PCR, ABCA13 gene expression in NHEKs; assay type: cell-based, human; conditions: 1 μM, FIG. 6A
Description: as §1

LXRβ = assay: TaqMan quantitative PCR, LXRβ gene expression in NHEKs; assay type: cell-based, human; conditions: UV-exposed (8 J/m^2), 1 μM, FIG. 1B
catalase (CAT) = assay: TaqMan quantitative PCR, CAT gene expression in NHEKs; assay type: cell-based, human; conditions: 1 μM, FIG. 11
Description: as §1

MMP3 [8] = assay: TaqMan quantitative PCR, MMP3 gene expression in NHEKs; assay type: cell-based, human; conditions: UV-exposed (8 J/m^2), 1 μM, FIG. 3
Description: as §1

TIMP1 [9] = assay: TaqMan quantitative PCR, TIMP1 gene expression in BJ human fibroblasts; assay type: cell-based; conditions: 1 μM, FIG. 9
Description: as §2, §3, §4

[10] = tested on: sphingomyelin phosphodiesterase (SMPD1); assay: TaqMan quantitative PCR, SMPD1 gene expression in NHEKs; assay type: cell-based, human; conditions: 1 μM, FIG. 10A
Description: as §1

ABCA2 = assay: TaqMan quantitative PCR, ABCA2 gene expression in NHEKs; assay type: cell-based, human; conditions: 1 μM, FIG. 6A
Description: as §1

ABCA1 = assay: TaqMan quantitative PCR, ABCA1 gene expression in NHEKs; assay type: cell-based, human; conditions: 1 μM, FIG. 6A
Description: as §1

acid ceramidase (ASAH1) = assay: TaqMan quantitative PCR, ASAH1 gene expression in NHEKs; assay type: cell-based, human; conditions: 1 μM, FIG. 10A
Description: as §1

decorin = assay: TaqMan quantitative PCR, decorin gene expression in NHEKs; assay type: cell-based, human; conditions: UV-exposed (8 J/m^2), 1 μM, FIG. 7
Description: as §1

TNFα = assay: TaqMan quantitative PCR, TNFα gene expression in NHEKs; assay type: cell-based, human; conditions: 1 μM, FIG. 2
Description: as §1

ABCG1 = assay: TaqMan quantitative PCR, ABCG1 gene expression in NHEKs; assay type: cell-based, human; conditions: 1 μM, FIG. 6A
Description: as §1

O=S(=O)(c1ccccc1)N(CC(F)(F)F)c1ccc(C(O)(C(F)(F)F)C(F)(F)F)cc1 [T1317, N-(2,2,2-trifluoroethyl)-N-{4-[2,2,2-trifluoro-1-hydroxy-1-(trifluoromethyl)ethyl]phenyl}benzene sulfonamide]
GPX3 expression [1]: induction
TNFα-induced MMP1 expression (MMP1): inhibition
expression of LXRα (LXRα; UV-exposed (8 J/m^2)): induced
expression of LXRα (LXRα; UV-unexposed): induced
TIMP1 expression (TIMP1 [2]; UV-exposed (8 J/m^2)): induced
TIMP1 expression (TIMP1 [2]; UV-unexposed): induced
TXNRD1 expression [3]: induction
TNFα-induced MMP-3 expression (MMP3 [4]): inhibition
GSR expression [5]: induction
SPTLC1 expression [6]: induction
ABCA12 expression (ABCA12; FIG. 6A): induction
UV-induced inhibition of ABCA12 expression (ABCA12; UV-exposed (8 J/m^2), FIG. 6B): reversed
UV-induced expression of IL-8 (IL-8): reduced
LASS2 expression [7]: induction
ABCA13 expression (ABCA13): induction
UV-mediated inhibition of LXRβ expression (LXRβ): reversed
CAT expression (catalase (CAT)): induction
UV-induced MMP-3 expression (MMP3 [8]): inhibition
TIMP1 expression (TIMP1 [9]; TNFα-exposed (5 ng/ml rhTNFα)): induced
TIMP1 expression (TIMP1 [9]; TNFα-unexposed): induced
SMPD1 expression [10]: induction
ABCA2 expression (ABCA2): induction
ABCA1 expression (ABCA1): induction
ASAH1 expression (acid ceramidase (ASAH1)): induction
UVB-mediated inhibition of decorin expression (decorin): reversed
UV-induced expression of TNFα (TNFα; UV-exposed (8 J/m^2)): reduced
basal expression of TNFα (TNFα; UV-unexposed): reduced
ABCG1 expression (ABCG1): induction
